Data from patent publication US10151753B2, “Microfluidic devices for isolating particles” (The General Hospital Corporation, priority 2013, dated 2018).

How the values were obtained:
Rec-1 cells = test: Ibrutinib-BFL fluorescence imaging of captured cells on the microfluidic device; type: cell-based; conditions: Rec-1 mantle cell lymphoma cells, FIG. 24
Jurkat cells = test: as above; type: cell-based; conditions: FIG. 24

## Cc1cc(C)n2c1C=C1C=CC(CCC(=O)NCC=CC(=O)N3CCCC(n4nc(-c5ccc(Oc6ccccc6)cc5)c5c(N)ncnc54)C3)=[N+]1[B-]2(F)F (centres unmarked) [Ibrutinib-BFL]
Rec-1 cells
  fluorescence of cells when incubated with the imaging drug (binding): exhibit fluorescence
Jurkat cells
  fluorescence of cells when incubated with the imaging drug (binding): do not exhibit fluorescent
